≈ marks a conversion by molar mass, not a printed value. Read-outs that look alike come from different tables or passages of the source. Marks after values point to notes of the source that are not given here. Non-standard residues stand in square brackets, D forms with d. Residues, ends and D or L forms follow the SMILES beside them.
Experiments:
[1] = tested on: klebsiella pneumoniae; assay: microbe, parasite or virus in culture; assay type: cell-based
In short: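 Agar dilution, MH agar, drug 0.03, 0.06, 0.125 … 128 μg/ml final; inoculum 10^4CFU/point via multipoint inoculator; 35° C, 18 h. Standard and clinical isolates, drug-resistant strains included.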

[2] = tested on: candida glabrata; assay: microbe, parasite or virus in culture; assay type: cell-based
In short: (§1)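 Broth dilution in RPMI-1640 with PL-13 peptide diluted 10-fold from stock; inoculum 1-3×10^3 CFU/ml in the test. Strains activated at 60% humidity, 25 °C for aspergillus or 37 °C for candida; living and blank control wells included.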

[3] = tested on: aspergillus flavous; assay: microbe, parasite or virus in culture; assay type: cell-based
In short: as §1

[4] = tested on: candida albicans; assay: microbe, parasite or virus in culture; assay type: cell-based
In short: as §1

[5] = tested on: candida tropicalis; assay: microbe, parasite or virus in culture; assay type: cell-based
In short: as §1

[6] = tested on: aspergillus fumigatus; assay: microbe, parasite or virus in culture; assay type: cell-based
In short: as §1

[7] = tested on: red cell suspension from healthy volunteers; assay: Hemolytic activity test; assay type: cell-based, human; conditions: for Hemolytic activity, absorbancy (OD value) at 570 nm: 4 hours at 37° C., OD higher than 0.1 is hemolytic, n = 3
Procedure: (1) Samples are serial diluted with sterile PBS to 1000, 500, 250, 125, 64, 32, 16, 8, 4 μg/ml in turn and spread in 96-well plates, 100 μl per orifice.
(2) We use distilled water as positive control, sterile PBS as negative control and blank orifice with 200 μl PBS solution added. Each concentration above is made in triplicate.
(3) We take 3 ml whole blood from healthy volunteers and washed it with sterile PBS three times to prepare fresh 2% concentration red cell suspension. Then we added 100 μl red cell suspension into each orifice and made them cultured for 4 hours at 37° C. in the incubator. After centrifuged by plate-swashing centrifuge, the supernatant liquid is collected and measured absorbancy (OD value) at a wavelength of 570 nm. Then we compared the hemolytic efficiency of these concentrations.
(4) According to the documents standard, OD value which is higher than 0.1 is hemolytic concentration.

[8] = tested on: Candida albicans and Escherichia; assay: Therapeutic experiment of injection on mice with multiple mixed infections, survival time; assay type: in vivo, ICR mice; conditions: for Mean survival Time / average survival time: observed fourteen days; for Mean survival Time / Mortality of mice in different days after infection: n = 20; for average survival time: injection through caudal vena twice a day for three days
Procedure: There are 60 male and 60 female ICR mice with the weight ranging from 18 g to 22 g. According to their weight, they are randomly divided into 6 groups of 20 mice: blank control group, negative control group, Levofloxacin positive control group, and high, middle and low dose of PL-18 (SEQ ID NO: 1) group. With trinitrophenal marking method, all the mice are raised with ordinary animal feeds in the ordinary animal houses and they can drink water freely. Alternating of light and dark is conducted every 12 hours.
2. Infected Strains: Candida albicans and Escherichia
PL-18 (SEQ ID NO: 1) freeze-dried powder injection (supplied by Jiangsu ProteLight Pharmaceutical & Biotechnology Co., LTD.), Levofloxacin Hydrochloride and Sodium Chloride Injection (supplied by Yangtze River Pharmaceutical Group) and 0.9% Sodium Chloride Injection (supplied by Chifeng Rongjitang Pharmaceutical CO., Ltd.)
(1) The preparation of bacterial suspension is the same as above.
(2) The Candida albicans suspension cultured overnight is diluted to 1×10^6CFU/ml with Sodium Chloride and 5×10^5CFU of which is injected into abdominal cavity of every mouse; the Escherichia suspension cultured overnight is diluted to 2×10^8CFU/ml and 1×10^7CFU of which is injected into abdominal cavity of every mouse to make model with mixed infections.
(3) The blank control group is injected with normal saline into their abdominal cavity, the positive control group is injected with Levofloxacin into their abdominal cavity.
(4) Administration: The drugs are administered according to weight right after the model is ready. All the groups except the blank and the infected negative control group are injected with different dosage of different injections through caudal vena twice a day successively for three days, and they are observed for fourteen days.
(5) Observe death of the animals and record their survival time.

Ac-FKRLEKLFSKIWNWK-NH2 [PL-12]
MIC ([1]; 08-2 (ESBLs) (listed under klebsiella pneumoniae)): 5.3 µM
MIC ([1]; klebsiella pneumoniae ATCC700603): 2.7 µM
MIC ([1]; strain 7 (listed under klebsiella pneumoniae)): 5.3 µM
Minimal inhibitory concentration ([2]; JLC 30367 candida glabrata): 32 µg/mL
Minimal inhibitory concentration ([2]; JLC 31512 candida glabrata): 32 µg/mL
Minimal inhibitory concentration ([3]; JLC 30784 aspergillus flavous): >64 µg/mL
Minimal inhibitory concentration ([3]; JLC 40437 aspergillus flavous): >64 µg/mL
Minimal inhibitory concentration ([4]; JLC 33659 candida albicans): 16 µg/mL
Minimal inhibitory concentration ([4]; JLC 33660 candida albicans): 16 µg/mL
Minimal inhibitory concentration ([5]; JLC 31379 candida tropicalis): 4 µg/mL
Minimal inhibitory concentration ([5]; JLC 31384 candida tropicalis): 8 µg/mL
Minimal inhibitory concentration ([6]; JLC 30506 aspergillus fumigatus): 32 µg/mL
Minimal inhibitory concentration ([6]; JLC 30883 aspergillus fumigatus): 32 µg/mL

Ac-FKKLKKLFSKLWNWK-NH2 [PL-13]
Hemolytic activity, absorbancy (OD value) at 570 nm ([7]; peptide 7.8125 μg/ml): 0.043
Hemolytic activity, absorbancy (OD value) at 570 nm ([7]; peptide 15.625 μg/ml): 0.059
Hemolytic activity, absorbancy (OD value) at 570 nm ([7]; peptide 31.25 μg/ml): 0.065
Hemolytic activity, absorbancy (OD value) at 570 nm ([7]; peptide 62.5 μg/ml): 0.090
Hemolytic activity, absorbancy (OD value) at 570 nm ([7]; peptide 125 μg/ml): 0.117
Hemolytic activity, absorbancy (OD value) at 570 nm ([7]; peptide 250 μg/ml): 0.184
Hemolytic activity, absorbancy (OD value) at 570 nm ([7]; peptide 500 μg/ml): 0.220
Hemolytic activity, absorbancy (OD value) at 570 nm ([7]; peptide 1000 μg/ml): 0.310
hemolytic toxicity (in words) ([7]; summary of Table 9): little hemolytic toxicity
Minimal inhibitory concentration [3]: >64 µg/mL
Minimal inhibitory concentration [4]: 8 µg/mL
Minimal inhibitory concentration [6]: 32 µg/mL

C[C@H]1COc2c(N3CCN(C)CC3)c(F)cc3c(=O)c(C(=O)O)cn1c23 [Levofloxacin, levofloxacin, reference compound]
MIC ([1]; Klebsiella pneumoniae, 08-2 (ESBLs) (listed under klebsiella pneumoniae)): 76.9 µM (≈ 27.8 µg/mL)
MIC ([1]; Klebsiella pneumoniae, ATCC700603, klebsiella pneumoniae ATCC700603): 1.2 µM (≈ 0.434 µg/mL)
MIC ([1]; Klebsiella pneumoniae, strain 7 (listed under klebsiella pneumoniae)): < 16 µM
Mean survival Time ([8]; 30 mg/kg): 3.9* day
Mortality of mice in different days after infection ([8]; day 1, 30 mg/kg): 8
Mortality of mice in different days after infection ([8]; day 2, 30 mg/kg): 6
Mortality of mice in different days after infection ([8]; day 3, 30 mg/kg): 2
Mortality of mice in different days after infection ([8]; day 4, 30 mg/kg): 0
Mortality of mice in different days after infection ([8]; day 5, 30 mg/kg): 0

CC(=O)N[C@H](Cc1ccccc1)C(=O)N[C@H](CCCCN)C(=O)N[C@H](CCCCN)C(=O)N[C@H](CC(C)C)C(=O)N[C@H](CCCCN)C(=O)N[C@H](CCCCN)C(=O)N[C@H](CC(C)C)C(=O)N[C@H](Cc1ccccc1)C(=O)N[C@H](CO)C(=O)N[C@H](CCCCN)C(=O)N[C@H](CC(C)C)C(=O)N[C@H](Cc1c[nH]c2ccccc12)C(=O)N[C@H](CC(N)=O)C(=O)N[C@H](Cc1c[nH]c2ccccc12)C(=O)N[C@H](CCCCN)C(N)=O [PL-18] (Ac-[dF][dK][dK][dL][dK][dK][dL][dF][dS][dK][dL][dW][dN][dW][dK]-NH2)
Mean survival Time ([8]; 0.2 mg/kg (low) caudal vena twice a day for three days): 4.4* day
Mean survival Time ([8]; 1 mg/kg (middle) caudal vena twice a day for three days): 5.7** day
curative effect on mice with multiple mixed infection (in words) ([8]; 1 mg/kg dosage injection): best curative effect
Mean survival Time ([8]; 5 mg/kg (high) caudal vena twice a day for three days): 5.3** day
Mortality of mice in different days after infection ([8]; day 1, 0.2 mg/kg (low) caudal vena twice a day for three days): 4
Mortality of mice in different days after infection ([8]; day 1, 1 mg/kg (middle) caudal vena twice a day for three days): 5
Mortality of mice in different days after infection ([8]; day 1, 5 mg/kg (high) caudal vena twice a day for three days): 5
Mortality of mice in different days after infection ([8]; day 2, 0.2 mg/kg (low) caudal vena twice a day for three days): 4
Mortality of mice in different days after infection ([8]; day 2, 1 mg/kg (middle) caudal vena twice a day for three days): 4
Mortality of mice in different days after infection ([8]; day 2, 5 mg/kg (high) caudal vena twice a day for three days): 5
Mortality of mice in different days after infection ([8]; day 3, 0.2 mg/kg (low) caudal vena twice a day for three days): 5
Mortality of mice in different days after infection ([8]; day 3, 1 mg/kg (middle) caudal vena twice a day for three days): 3
Mortality of mice in different days after infection ([8]; day 3, 5 mg/kg (high) caudal vena twice a day for three days): 2
Mortality of mice in different days after infection ([8]; day 4, 0.2 mg/kg (low) caudal vena twice a day for three days): 2
Mortality of mice in different days after infection ([8]; day 4, 1 mg/kg (middle) caudal vena twice a day for three days): 2
Mortality of mice in different days after infection ([8]; day 4, 5 mg/kg (high) caudal vena twice a day for three days): 1
Mortality of mice in different days after infection ([8]; day 5, 0.2 mg/kg (low) caudal vena twice a day for three days): 2
Mortality of mice in different days after infection ([8]; day 5, 1 mg/kg (middle) caudal vena twice a day for three days): 0
Mortality of mice in different days after infection ([8]; day 5, 5 mg/kg (high) caudal vena twice a day for three days): 2
average survival time ([8]; high dosage group): 5.3 days
average survival time ([8]; low dosage group): 4.4 days
average survival time ([8]; middle dosage group): 5.7 days
Minimal inhibitory concentration [2]: 4 µg/mL (≈ 1.97 µM)
Minimal inhibitory concentration [3]: >64 µg/mL
Minimal inhibitory concentration [4]: 4 µg/mL (≈ 1.97 µM)
Minimal inhibitory concentration [5]: 2 µg/mL (≈ 0.983 µM)
Minimal inhibitory concentration [6]: 16 µg/mL (≈ 7.86 µM)

CC(=O)N[C@H](Cc1ccccc1)C(=O)N[C@H](CCCCN)C(=O)N[C@H](CCCCN)C(=O)N[C@H](Cc1ccccc1)C(=O)N[C@H](CCCCN)C(=O)N[C@H](CCCCN)C(=O)N[C@H](CC(C)C)C(=O)N[C@H](CC(C)C)C(=O)N[C@H](CO)C(=O)N[C@H](CCCCN)C(=O)N[C@H](CC(C)C)C(=O)N[C@H](Cc1c[nH]c2ccccc12)C(=O)N[C@H](CC(N)=O)C(=O)N[C@H](Cc1c[nH]c2ccccc12)C(=O)N[C@H](CCCCN)C(N)=O [PL-43] (Ac-[dF][dK][dK][dF][dK][dK][dL][dL][dS][dK][dL][dW][dN][dW][dK]-NH2; N-terminus and C-terminus assumed)
Minimal inhibitory concentration [2]: 32 µg/mL (≈ 15.7 µM)
Minimal inhibitory concentration [3]: >64 µg/mL
Minimal inhibitory concentration [6]: 64 µg/mL (≈ 31.4 µM)

Source: patent US9273095B2, “Antibiotic peptide and preparation method therefor and application therefor” (priority 2011, dated 2016)
